Data published in ChEMBL document CHEMBL3991601, “The target landscape of clinical kinase drugs” (Science, 2017).
Activity calls are given as the source filed them. Cut-off read from the data, not from the text of the source, for most assays here: actives have a measured Kd and inactives only a lower limit.

Legend:
[1] = target: Serine/threonine-protein kinase MRCK alpha (Homo sapiens, UniProt Q5VT25)
[2] = target: T1, Serine/threonine-protein kinase 4 (Homo sapiens, UniProt Q13043)
T1 sequence (Q13043 whole entry): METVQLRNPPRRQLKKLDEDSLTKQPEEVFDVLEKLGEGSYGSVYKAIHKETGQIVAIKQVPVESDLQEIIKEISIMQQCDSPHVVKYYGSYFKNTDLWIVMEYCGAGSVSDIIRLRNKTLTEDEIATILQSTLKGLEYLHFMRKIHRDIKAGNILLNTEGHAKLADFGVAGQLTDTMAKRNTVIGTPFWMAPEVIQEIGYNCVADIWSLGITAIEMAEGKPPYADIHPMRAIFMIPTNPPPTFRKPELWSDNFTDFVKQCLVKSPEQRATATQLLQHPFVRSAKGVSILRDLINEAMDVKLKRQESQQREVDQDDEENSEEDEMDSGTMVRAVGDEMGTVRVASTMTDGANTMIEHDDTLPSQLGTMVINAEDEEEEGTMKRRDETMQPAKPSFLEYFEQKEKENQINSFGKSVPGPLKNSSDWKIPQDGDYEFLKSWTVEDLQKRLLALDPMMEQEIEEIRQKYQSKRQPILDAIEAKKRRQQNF

[3] = target: T2, Phosphatidylinositol 5-phosphate 4-kinase type-2 gamma (Homo sapiens, UniProt Q8TBX8)
T2 sequence (Q8TBX8 whole entry): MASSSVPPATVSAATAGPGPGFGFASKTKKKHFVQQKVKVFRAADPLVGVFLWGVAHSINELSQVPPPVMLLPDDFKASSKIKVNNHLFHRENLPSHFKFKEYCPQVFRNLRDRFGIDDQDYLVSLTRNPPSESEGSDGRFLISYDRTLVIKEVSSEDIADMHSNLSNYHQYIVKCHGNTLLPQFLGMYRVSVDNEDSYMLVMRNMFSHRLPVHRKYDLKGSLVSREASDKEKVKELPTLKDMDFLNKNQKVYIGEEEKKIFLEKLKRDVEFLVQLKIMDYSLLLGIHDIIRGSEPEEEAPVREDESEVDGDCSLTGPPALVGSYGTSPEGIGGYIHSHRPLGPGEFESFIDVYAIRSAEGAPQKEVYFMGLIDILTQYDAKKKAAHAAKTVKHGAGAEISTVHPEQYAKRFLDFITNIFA

[4] = target: Cyclin-dependent kinase 6 (Homo sapiens, UniProt Q00534)
[5] = target: BMP-2-inducible protein kinase (Homo sapiens, UniProt Q9NSY1)
[6] = target: T3, Non-receptor tyrosine-protein kinase TNK1 (Homo sapiens, UniProt Q13470)
T3 sequence (Q13470 whole entry): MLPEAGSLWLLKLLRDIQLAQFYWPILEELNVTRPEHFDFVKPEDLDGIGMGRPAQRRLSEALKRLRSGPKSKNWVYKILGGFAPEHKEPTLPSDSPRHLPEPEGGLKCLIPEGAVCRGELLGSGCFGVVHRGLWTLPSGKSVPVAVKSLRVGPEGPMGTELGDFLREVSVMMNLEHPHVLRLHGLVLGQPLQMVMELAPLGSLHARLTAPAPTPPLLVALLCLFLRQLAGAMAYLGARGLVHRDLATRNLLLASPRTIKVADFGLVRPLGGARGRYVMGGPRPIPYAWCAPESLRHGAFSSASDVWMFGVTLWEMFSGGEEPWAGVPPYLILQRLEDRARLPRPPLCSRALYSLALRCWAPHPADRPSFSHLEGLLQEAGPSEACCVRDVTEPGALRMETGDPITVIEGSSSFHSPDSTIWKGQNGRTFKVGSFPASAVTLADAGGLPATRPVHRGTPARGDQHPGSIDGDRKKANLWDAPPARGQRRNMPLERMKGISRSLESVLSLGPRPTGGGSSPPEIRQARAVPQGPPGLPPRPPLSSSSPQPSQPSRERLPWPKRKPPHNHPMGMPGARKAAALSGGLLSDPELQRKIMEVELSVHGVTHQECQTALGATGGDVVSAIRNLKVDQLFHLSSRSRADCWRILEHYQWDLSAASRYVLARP

[7] = target: Dual specificity protein kinase CLK1 (Homo sapiens, UniProt P49759)
[8] = target: Calcium/calmodulin-dependent protein kinase type II subunit gamma (Homo sapiens, UniProt Q13555)
[9] = target: T4, MAP kinase-activated protein kinase 5 (Homo sapiens, UniProt Q8IW41)
T4 sequence (Q8IW41 whole entry): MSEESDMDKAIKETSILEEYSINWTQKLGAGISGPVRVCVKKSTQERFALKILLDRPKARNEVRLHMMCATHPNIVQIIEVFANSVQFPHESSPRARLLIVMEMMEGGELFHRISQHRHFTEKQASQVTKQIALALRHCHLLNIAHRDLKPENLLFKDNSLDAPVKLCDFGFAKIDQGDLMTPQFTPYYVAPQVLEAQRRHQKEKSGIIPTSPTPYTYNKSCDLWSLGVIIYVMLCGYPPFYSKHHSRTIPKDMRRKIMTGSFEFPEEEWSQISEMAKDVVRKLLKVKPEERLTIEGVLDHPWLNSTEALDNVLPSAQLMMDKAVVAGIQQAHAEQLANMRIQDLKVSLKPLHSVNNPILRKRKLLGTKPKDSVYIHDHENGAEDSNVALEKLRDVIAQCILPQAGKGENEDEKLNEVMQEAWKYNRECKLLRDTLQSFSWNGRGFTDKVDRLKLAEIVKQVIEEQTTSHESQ

Activated CDC42 kinase 1 = Activated CDC42 kinase 1 (Homo sapiens, UniProt Q07912)
LIM domain kinase 1 = LIM domain kinase 1 (Homo sapiens, UniProt P53667)
[10] = target: Serine/threonine-protein kinase SIK3 (Homo sapiens, UniProt Q9Y2K2)
[11] = target: Cyclin-dependent kinase 5 (Homo sapiens, UniProt Q00535)
Note: in the data inactive means no Kd found up to 30 µM.

Sequence of Cyclin-dependent kinase 6 (Q00534 whole entry): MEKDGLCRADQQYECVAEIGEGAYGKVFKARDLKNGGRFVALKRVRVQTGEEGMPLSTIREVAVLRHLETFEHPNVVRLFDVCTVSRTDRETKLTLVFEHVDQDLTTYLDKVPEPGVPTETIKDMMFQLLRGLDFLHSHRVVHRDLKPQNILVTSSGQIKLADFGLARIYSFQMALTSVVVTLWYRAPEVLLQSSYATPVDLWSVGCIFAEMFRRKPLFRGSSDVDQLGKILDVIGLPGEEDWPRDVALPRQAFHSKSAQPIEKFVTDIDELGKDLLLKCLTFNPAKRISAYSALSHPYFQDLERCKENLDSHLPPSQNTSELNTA
Sequence of Calcium/calmodulin-dependent protein kinase type II subunit gamma (Q13555 whole entry): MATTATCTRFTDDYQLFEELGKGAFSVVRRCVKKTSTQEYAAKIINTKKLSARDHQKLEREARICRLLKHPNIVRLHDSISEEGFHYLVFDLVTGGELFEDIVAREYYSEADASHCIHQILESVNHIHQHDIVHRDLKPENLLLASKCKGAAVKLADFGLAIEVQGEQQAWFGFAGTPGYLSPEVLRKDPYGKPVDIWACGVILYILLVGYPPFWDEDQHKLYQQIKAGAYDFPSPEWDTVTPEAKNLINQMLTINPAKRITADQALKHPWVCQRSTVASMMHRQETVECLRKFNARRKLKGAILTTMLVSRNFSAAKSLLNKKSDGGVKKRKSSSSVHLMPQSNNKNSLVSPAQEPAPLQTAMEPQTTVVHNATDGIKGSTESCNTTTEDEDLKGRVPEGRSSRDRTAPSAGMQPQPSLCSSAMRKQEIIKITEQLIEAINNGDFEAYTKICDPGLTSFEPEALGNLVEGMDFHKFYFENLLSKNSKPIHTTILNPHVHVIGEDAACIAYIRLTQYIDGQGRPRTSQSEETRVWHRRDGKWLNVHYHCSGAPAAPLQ
Sequence of Activated CDC42 kinase 1 (Q07912 whole entry, the tested form may be a part): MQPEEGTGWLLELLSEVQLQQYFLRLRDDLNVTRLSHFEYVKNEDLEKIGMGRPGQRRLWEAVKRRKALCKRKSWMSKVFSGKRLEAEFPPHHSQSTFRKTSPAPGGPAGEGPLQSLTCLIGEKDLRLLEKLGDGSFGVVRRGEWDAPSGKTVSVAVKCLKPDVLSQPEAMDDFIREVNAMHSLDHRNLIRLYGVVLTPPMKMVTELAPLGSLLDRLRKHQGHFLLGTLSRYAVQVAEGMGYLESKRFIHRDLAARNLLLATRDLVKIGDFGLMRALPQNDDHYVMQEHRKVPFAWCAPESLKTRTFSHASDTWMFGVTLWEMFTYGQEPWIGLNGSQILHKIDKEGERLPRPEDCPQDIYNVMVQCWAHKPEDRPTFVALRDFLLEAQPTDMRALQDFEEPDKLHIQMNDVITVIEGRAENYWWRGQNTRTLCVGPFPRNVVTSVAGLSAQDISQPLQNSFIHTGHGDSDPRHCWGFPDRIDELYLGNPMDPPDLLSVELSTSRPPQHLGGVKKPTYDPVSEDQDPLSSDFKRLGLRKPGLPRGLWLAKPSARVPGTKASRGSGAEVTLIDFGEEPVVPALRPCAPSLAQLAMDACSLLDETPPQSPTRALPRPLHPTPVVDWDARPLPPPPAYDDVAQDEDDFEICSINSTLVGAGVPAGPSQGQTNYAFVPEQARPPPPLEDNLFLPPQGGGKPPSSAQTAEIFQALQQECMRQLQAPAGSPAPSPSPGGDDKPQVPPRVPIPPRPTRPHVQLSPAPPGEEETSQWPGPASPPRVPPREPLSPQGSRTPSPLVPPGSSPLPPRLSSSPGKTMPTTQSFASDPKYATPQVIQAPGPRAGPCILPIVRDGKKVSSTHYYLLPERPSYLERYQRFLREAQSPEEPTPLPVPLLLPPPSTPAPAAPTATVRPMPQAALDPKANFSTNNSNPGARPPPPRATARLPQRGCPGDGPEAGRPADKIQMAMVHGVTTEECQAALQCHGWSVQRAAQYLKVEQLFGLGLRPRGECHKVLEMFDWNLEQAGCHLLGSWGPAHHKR
Sequence of Cyclin-dependent kinase 5 (Q00535 whole entry): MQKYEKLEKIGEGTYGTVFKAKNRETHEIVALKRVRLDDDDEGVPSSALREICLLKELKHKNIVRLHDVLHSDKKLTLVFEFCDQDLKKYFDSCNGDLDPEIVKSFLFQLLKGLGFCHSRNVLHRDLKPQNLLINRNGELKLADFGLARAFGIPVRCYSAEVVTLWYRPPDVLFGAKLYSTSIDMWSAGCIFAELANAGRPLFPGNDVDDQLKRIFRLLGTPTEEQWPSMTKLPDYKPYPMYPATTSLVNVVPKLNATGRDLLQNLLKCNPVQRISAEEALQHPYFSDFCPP
Sequence of Dual specificity protein kinase CLK1 (P49759 whole entry): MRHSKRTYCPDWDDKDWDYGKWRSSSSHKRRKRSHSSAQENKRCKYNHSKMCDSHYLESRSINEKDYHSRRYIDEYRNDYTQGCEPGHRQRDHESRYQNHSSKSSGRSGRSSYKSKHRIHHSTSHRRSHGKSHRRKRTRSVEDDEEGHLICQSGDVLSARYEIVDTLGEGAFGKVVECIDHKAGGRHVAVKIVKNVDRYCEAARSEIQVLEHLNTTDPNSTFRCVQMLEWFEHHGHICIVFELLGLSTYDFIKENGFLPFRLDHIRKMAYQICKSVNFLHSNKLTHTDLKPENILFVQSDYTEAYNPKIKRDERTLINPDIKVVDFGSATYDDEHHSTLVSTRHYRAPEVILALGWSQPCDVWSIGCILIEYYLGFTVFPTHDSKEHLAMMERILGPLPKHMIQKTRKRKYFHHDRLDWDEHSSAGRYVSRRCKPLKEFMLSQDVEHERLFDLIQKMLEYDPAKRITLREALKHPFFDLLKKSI
Sequence of BMP-2-inducible protein kinase (Q9NSY1 whole entry): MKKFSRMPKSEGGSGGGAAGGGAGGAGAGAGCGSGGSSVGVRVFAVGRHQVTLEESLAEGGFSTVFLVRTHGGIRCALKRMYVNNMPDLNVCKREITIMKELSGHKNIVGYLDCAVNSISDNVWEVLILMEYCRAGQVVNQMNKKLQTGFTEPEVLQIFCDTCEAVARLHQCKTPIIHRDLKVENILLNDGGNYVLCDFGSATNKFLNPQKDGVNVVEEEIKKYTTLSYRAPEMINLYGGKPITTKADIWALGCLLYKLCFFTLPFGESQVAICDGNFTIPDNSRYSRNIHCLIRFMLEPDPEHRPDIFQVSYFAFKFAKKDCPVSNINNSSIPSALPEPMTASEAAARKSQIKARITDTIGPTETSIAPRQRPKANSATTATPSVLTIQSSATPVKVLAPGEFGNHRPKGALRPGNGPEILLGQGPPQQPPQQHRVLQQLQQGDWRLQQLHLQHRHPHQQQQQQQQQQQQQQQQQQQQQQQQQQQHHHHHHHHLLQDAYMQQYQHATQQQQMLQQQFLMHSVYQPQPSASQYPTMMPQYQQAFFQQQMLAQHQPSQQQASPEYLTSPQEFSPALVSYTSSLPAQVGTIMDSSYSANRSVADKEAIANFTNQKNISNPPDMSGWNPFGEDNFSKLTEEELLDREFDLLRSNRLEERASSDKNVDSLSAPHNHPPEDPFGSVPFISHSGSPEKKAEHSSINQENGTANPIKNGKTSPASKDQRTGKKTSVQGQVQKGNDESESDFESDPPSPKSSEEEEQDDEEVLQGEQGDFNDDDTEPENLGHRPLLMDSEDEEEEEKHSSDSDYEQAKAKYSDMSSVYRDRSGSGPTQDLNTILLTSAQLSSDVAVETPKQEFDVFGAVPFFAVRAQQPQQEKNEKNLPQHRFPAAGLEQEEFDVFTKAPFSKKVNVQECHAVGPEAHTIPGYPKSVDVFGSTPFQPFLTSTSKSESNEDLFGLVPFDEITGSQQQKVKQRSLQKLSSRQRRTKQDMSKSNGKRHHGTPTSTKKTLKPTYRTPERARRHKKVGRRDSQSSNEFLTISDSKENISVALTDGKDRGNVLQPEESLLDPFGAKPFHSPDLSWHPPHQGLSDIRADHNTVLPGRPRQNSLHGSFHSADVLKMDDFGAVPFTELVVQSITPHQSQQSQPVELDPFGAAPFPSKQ
Sequence of LIM domain kinase 1 (P53667 whole entry, the tested form may be a part): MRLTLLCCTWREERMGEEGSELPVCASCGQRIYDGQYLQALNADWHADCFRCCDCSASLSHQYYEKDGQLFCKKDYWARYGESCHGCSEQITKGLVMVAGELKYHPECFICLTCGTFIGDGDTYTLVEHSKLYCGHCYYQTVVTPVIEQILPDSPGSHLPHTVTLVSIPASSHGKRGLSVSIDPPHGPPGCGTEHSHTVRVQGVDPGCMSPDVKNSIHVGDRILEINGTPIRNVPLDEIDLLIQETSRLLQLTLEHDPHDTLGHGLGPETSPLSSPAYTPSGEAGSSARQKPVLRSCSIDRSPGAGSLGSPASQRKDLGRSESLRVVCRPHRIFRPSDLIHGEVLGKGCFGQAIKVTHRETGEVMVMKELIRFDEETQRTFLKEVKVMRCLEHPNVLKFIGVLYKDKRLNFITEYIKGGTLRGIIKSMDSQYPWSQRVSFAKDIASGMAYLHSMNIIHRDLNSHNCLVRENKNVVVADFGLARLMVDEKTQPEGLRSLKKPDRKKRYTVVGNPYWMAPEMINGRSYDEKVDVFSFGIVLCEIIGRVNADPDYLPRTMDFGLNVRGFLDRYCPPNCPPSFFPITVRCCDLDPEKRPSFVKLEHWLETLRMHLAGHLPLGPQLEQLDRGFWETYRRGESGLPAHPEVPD

C[C@@H](Nc1cc(F)cc(F)c1)c1cc(C(=O)N(C)C)cc2c(=O)cc(N3CCOCC3)oc12 [AZD-8186]
Kd [1]: > 30 µM (inactive) | Kd [2]: > 30 µM (inactive) | Kd [3]: > 30 µM (inactive) | Kd [4]: > 30 µM (inactive) | Kd [5]: > 30 µM (inactive) | Kd [6]: > 30 µM (inactive) | Kd [7]: > 30 µM (inactive) | Kd [8]: > 30 µM (inactive) | Kd [9]: > 30 µM (inactive) | Kd (Activated CDC42 kinase 1): > 30 µM (inactive) | Kd (LIM domain kinase 1): > 30 µM (inactive) | Kd [10]: > 30 µM (inactive) | Kd [11]: > 30 µM (inactive)

Cc1ccc(S(=O)(=O)Nc2nc3ccccc3nc2Nc2ccc3nsnc3c2)cc1
Kd [1]: > 30 µM (inactive) | Kd [2]: > 30 µM (inactive) | Kd [3]: > 30 µM (inactive) | Kd [4]: > 30 µM (inactive) | Kd [5]: > 30 µM (inactive) | Kd [6]: > 30 µM (inactive) | Kd [7]: > 30 µM (inactive) | Kd [8]: > 30 µM (inactive) | Kd [9]: > 30 µM (inactive) | Kd (Activated CDC42 kinase 1): > 30 µM (inactive) | Kd (LIM domain kinase 1): > 30 µM (inactive) | Kd [10]: > 30 µM (inactive) | Kd [11]: > 30 µM (inactive)

CCCS(=O)(=O)Nc1ccc(F)c(C(=O)c2c[nH]c3ncc(-c4ccc(Cl)cc4)cc23)c1F [VEMURAFENIB]
Kd [1]: > 30 µM (inactive) | Kd [2]: > 30 µM (inactive) | Kd [3]: > 30 µM (inactive) | Kd [4]: > 30 µM (inactive) | Kd [5]: > 30 µM (inactive) | Kd [6]: > 30 µM (inactive) | Kd [7]: > 30 µM (inactive) | Kd [8]: > 30 µM (inactive) | Kd [9]: > 30 µM (inactive) | Kd (Activated CDC42 kinase 1): > 30 µM (inactive) | Kd (LIM domain kinase 1): > 30 µM (inactive) | Kd [10]: > 30 µM (inactive) | Kd [11]: > 30 µM (inactive)

C=CC(=O)N1CCC(Oc2cc3c(Nc4ccc(Cl)c(Cl)c4F)ncnc3cc2OC)CC1 [POZIOTINIB]
Kd [1]: > 30 µM (inactive) | Kd [2]: > 30 µM (inactive) | Kd [3]: > 30 µM (inactive) | Kd [4]: > 30 µM (inactive) | Kd [5]: > 30 µM (inactive) | Kd [6]: 1.68 µM (active) | Kd [7]: > 30 µM (inactive) | Kd [8]: > 30 µM (inactive) | Kd [9]: > 30 µM (inactive) | Kd (Activated CDC42 kinase 1): > 30 µM (inactive) | Kd (LIM domain kinase 1): > 30 µM (inactive) | Kd [10]: > 30 µM (inactive) | Kd [11]: > 30 µM (inactive)
